Read-outs that look alike come from different tables or passages of the source.
Columns and labels:
[1] = test system: Mäusen; assay: Orienting acute toxicity after a single oral dose; settings: in vivo, po, 250 mg/kg
Text: (§1) Die orientierende akute Toxizität der zu untersuchenden Substanzen wurde orientierend an Gruppen von je 5 Mäusen nach oraler Gabe einer Einzeldosis bestimmt (Beobachtungszeit: 14 Tage): […]

[2] = Orienting acute toxicity after a single oral dose; settings: mouse, in vivo, read-out: Orientierende aktute Toxizität
Text: as §1

[3] = mice, groups of 5, oral single dose, observation time 14 days

| Structure (SMILES) | Tieren gestorben [1] | LD50 at 336 h [2, 3] | LD50 at 336 h ([2]; po) |
| --- | --- | --- | --- |
| CSc1nc2c(N3CC[S+]([O-])CC3)nc(N3CCNCC3)nc2nc1NCc1ccccc1 [Substanz D, 7-Benzylamino-6-methylthio-4-(1-oxidothiomorpholino)-2-piperazino-pteridin] | 0 von 5 | > 250 mg/kg |  |
| CN(C)c1nc(N2CCNCC2)nc2nc(NCc3ccccc3)c(Cl)nc12 [Substanz E, 6-Chlor-2-piperazino-4-dimethyl-amino-7-benzylamino-pteridin] | 0 von 5 |  | > 250 mg/kg |
| c1ccc(CSc2nc3c(N4CCOCC4)nc(N4CCNCC4)nc3nc2N2CCOCC2)cc1 [Substanz A, 6-Benzylthio-4,7-dimorpholino-2-piperazino-pteridin] | 0 von 5 | > 250 mg/kg |  |
| CN(C)c1nc2nc(N3CCNCC3)nc(N(C)C)c2nc1Cl [Substanz B, 6-Chlor-4,7-bis-(dimethylamino)-2-piperazino-pteridin] | 0 von 5 |  | > 250 mg/kg |
| CN(C)c1nc2nc(N3CCNCC3)nc(N(C)C)c2nc1SCc1ccccc1 [Substanz C, 6-Benzylthio-4,7-bis-(dimethylamino)-2-piperazino-pteridin] | 0 von 5 | > 250 mg/kg |  |

Source: patent publication EP0134922A1, “2-Piperazino-pteridines, processes for their preparation and medicaments containing these compounds” (Dr. Karl Thomae GmbH, priority 1983, dated 1985)
